{"source": "ChEMBL document CHEMBL1150976", "about": "“The selectivity of protein kinase inhibitors: a further update” (Biochem J, 2007)", "key": {"[1]": {"molecular_target": "RAC-alpha serine/threonine-protein kinase (Homo sapiens) (UniProt P31749)", "sequence (P31749 whole entry)": "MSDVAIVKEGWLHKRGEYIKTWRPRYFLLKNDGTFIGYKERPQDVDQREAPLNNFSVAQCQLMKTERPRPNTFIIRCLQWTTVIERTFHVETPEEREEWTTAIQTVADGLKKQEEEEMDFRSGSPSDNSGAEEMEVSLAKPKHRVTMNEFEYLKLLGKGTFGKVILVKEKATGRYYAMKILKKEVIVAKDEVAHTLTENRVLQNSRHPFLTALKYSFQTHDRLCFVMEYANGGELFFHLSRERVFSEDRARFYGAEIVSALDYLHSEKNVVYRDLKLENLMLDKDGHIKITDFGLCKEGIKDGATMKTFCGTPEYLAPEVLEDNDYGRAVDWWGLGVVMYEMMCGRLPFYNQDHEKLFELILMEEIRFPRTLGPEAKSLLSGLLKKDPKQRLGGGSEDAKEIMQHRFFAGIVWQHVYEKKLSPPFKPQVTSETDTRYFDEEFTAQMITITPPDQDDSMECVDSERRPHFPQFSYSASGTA", "experiment": "Percentage PKBalpha activity remaining in the presence of 0.1uM inhibitor"}, "[2]": {"molecular_target": "T1, Eukaryotic elongation factor 2 kinase (Homo sapiens) (UniProt O00418)", "T1 sequence (whole entry)": "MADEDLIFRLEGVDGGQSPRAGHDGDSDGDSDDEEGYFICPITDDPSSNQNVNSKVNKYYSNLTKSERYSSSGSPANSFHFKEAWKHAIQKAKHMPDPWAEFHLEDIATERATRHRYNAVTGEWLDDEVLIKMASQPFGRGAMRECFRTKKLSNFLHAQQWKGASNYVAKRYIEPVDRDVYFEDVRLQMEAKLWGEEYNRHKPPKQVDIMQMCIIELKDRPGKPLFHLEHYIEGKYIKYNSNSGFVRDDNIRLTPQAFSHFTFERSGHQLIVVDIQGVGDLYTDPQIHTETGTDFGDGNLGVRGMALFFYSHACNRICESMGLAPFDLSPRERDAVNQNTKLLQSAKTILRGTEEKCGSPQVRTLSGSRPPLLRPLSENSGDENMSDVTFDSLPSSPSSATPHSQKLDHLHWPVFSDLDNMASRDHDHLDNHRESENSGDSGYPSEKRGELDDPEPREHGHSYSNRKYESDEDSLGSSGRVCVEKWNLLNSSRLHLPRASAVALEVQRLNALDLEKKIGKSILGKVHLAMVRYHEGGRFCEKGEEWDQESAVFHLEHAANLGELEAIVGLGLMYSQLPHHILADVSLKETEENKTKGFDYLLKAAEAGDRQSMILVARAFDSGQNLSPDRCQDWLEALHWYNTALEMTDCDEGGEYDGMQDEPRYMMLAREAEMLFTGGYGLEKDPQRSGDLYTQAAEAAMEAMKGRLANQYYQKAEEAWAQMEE", "experiment": "Percentage EF2K activity remaining in the presence of 0.1uM inhibitor"}, "[3]": {"molecular_target": "T2, Mitogen-activated protein kinase 13 (Homo sapiens) (UniProt O15264)", "T2 sequence (whole entry)": "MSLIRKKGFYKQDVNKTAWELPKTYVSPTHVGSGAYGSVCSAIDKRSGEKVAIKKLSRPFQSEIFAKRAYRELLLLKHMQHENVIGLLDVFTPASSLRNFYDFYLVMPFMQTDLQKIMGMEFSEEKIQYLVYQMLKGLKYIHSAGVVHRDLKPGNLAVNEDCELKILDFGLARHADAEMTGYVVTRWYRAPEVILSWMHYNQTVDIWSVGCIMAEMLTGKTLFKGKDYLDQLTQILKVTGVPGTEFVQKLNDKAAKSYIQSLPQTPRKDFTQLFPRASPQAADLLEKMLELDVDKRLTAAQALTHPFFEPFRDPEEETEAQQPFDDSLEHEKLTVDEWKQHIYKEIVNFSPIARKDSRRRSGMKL", "experiment": "Percentage p38delta activity remaining in the presence of 0.1uM inhibitor"}, "[4]": {"molecular_target": "Ribosomal protein S6 kinase alpha-5 (Homo sapiens) (UniProt O75582)", "sequence (O75582 whole entry, looked up)": "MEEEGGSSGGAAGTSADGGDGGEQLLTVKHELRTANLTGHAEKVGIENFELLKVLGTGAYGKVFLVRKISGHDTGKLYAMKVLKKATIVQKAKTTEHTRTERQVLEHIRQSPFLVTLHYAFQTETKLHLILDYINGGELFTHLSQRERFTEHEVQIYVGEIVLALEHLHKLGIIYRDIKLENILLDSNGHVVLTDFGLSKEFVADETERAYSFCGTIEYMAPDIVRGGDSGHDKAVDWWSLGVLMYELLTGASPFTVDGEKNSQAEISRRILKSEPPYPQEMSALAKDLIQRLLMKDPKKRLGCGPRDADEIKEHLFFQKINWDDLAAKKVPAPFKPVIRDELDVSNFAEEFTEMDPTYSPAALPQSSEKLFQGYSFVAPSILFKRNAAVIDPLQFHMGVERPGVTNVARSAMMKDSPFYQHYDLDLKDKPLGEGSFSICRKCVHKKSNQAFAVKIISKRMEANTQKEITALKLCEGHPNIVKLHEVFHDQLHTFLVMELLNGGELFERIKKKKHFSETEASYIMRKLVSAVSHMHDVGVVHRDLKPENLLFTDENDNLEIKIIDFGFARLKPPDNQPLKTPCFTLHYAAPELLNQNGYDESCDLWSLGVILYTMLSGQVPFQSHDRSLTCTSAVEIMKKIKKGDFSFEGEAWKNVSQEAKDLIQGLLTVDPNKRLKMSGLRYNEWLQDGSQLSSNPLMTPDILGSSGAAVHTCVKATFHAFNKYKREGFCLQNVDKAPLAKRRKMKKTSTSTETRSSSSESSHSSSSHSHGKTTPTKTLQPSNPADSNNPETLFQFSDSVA", "experiment": "Percentage MSK1 activity remaining in the presence of 0.1uM inhibitor"}, "[5]": {"molecular_target": "MAP kinase-activated protein kinase 2 (Homo sapiens) (UniProt P49137)", "sequence (P49137 whole entry, looked up)": "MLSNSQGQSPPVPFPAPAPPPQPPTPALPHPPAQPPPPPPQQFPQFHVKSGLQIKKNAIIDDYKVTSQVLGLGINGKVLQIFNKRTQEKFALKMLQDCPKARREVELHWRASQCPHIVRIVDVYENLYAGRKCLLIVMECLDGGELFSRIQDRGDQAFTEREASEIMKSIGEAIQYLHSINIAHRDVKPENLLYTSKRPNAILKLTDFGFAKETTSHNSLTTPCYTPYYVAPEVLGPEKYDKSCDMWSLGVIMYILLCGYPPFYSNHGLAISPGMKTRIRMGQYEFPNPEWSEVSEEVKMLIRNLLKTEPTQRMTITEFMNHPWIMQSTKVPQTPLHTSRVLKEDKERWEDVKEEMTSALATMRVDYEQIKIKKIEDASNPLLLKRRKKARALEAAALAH", "experiment": "Percentage MAPKAPK2 activity remaining in the presence of 0.1uM inhibitor"}, "[6]": {"molecular_target": "T3, Serine/threonine-protein kinase D1 (Homo sapiens) (UniProt Q15139)", "T3 sequence (whole entry)": "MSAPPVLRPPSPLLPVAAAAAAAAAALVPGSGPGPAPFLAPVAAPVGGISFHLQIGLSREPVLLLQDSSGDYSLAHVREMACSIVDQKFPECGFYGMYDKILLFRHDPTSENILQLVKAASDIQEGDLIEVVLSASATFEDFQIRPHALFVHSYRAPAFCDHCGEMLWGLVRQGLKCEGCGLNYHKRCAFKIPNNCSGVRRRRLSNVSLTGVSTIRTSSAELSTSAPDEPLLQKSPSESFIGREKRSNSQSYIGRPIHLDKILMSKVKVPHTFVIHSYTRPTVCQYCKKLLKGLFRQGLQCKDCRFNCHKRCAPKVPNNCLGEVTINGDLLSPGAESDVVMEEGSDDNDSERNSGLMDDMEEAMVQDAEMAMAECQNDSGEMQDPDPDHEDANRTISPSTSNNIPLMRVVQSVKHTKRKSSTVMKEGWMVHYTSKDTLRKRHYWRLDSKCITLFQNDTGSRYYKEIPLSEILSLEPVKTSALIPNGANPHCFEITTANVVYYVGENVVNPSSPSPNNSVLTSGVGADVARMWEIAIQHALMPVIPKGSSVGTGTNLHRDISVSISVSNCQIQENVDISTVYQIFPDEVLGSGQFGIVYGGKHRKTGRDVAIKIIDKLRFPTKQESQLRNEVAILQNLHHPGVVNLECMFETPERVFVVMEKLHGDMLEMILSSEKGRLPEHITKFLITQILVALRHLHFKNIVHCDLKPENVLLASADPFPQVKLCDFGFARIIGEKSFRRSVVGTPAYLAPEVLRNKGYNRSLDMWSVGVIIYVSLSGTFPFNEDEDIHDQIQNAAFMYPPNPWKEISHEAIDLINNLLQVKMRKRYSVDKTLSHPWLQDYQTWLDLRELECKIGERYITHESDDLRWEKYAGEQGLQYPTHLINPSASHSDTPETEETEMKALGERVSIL", "experiment": "Percentage PKD1 activity remaining in the presence of 0.1uM inhibitor"}, "[7]": {"molecular_target": "T4, Dual specificity tyrosine-phosphorylation-regulated kinase 2 (Homo sapiens) (UniProt Q92630)", "T4 sequence (whole entry)": "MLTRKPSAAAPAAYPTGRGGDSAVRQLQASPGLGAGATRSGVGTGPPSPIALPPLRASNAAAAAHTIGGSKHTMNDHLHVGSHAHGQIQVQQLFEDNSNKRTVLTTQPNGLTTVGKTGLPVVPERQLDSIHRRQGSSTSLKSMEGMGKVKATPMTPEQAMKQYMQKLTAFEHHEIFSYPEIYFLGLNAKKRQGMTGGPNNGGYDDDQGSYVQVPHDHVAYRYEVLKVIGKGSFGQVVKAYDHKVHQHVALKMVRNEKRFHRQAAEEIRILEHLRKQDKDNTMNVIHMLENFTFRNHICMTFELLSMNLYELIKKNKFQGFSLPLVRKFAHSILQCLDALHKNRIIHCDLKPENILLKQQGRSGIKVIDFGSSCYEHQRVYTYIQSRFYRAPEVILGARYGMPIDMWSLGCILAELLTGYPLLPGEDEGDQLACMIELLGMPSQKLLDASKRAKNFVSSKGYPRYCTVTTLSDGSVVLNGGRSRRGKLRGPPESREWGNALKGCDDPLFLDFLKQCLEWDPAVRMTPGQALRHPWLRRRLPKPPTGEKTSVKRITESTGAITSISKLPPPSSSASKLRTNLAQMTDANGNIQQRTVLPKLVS", "experiment": "Percentage DYRK2 activity remaining in the presence of 0.1uM inhibitor"}}}
{"smiles": "O=C(NCCCNc1nc(Nc2cccc(NC(=O)N3CCCC3)c2)ncc1I)c1cccs1", "values": [{"measurement": "Activity", "setting": "[1]", "value": 90, "unit": "%"}, {"measurement": "Activity", "setting": "[2]", "value": 93, "unit": "%"}, {"measurement": "Activity", "setting": "[3]", "value": 76, "unit": "%"}, {"measurement": "Activity", "setting": "[4]", "value": 84, "unit": "%"}, {"measurement": "Activity", "setting": "[5]", "value": 108, "unit": "%"}, {"measurement": "Activity", "setting": "[6]; filed as antagonist", "value": 38, "unit": "%"}, {"measurement": "Activity", "setting": "[7]", "value": 76, "unit": "%"}]}
{"smiles": "Cn1cc(C2=C(c3cn(CCCSC(=N)N)c4ccccc34)C(=O)NC2=O)c2ccccc21", "values": [{"measurement": "Activity", "setting": "[1]", "value": 52, "unit": "%"}, {"measurement": "Activity", "setting": "[2]", "value": 101, "unit": "%"}, {"measurement": "Activity", "setting": "[3]", "value": 92, "unit": "%"}, {"measurement": "Activity", "setting": "[4]; filed as antagonist", "value": 11, "unit": "%"}, {"measurement": "Activity", "setting": "[5]", "value": 90, "unit": "%"}, {"measurement": "Activity", "setting": "[6]", "value": 66, "unit": "%"}, {"measurement": "Activity", "setting": "[7]", "value": 90, "unit": "%"}]}
{"smiles": "CC(C)CCN1c2nc(Nc3cc(F)c(O)c(F)c3)ncc2N(C)C(=O)C1C", "note": "(configuration not stated)", "values": [{"measurement": "Activity", "setting": "[1]", "value": 98, "unit": "%"}, {"measurement": "Activity", "setting": "[2]", "value": 88, "unit": "%"}, {"measurement": "Activity", "setting": "[3]", "value": 105, "unit": "%"}, {"measurement": "Activity", "setting": "[4]", "value": 125, "unit": "%"}, {"measurement": "Activity", "setting": "[5]", "value": 89, "unit": "%"}, {"measurement": "Activity", "setting": "[6]", "value": 63, "unit": "%"}, {"measurement": "Activity", "setting": "[7]", "value": 91, "unit": "%"}]}
{"smiles": "CC(C)[C@H](CO)Nc1nc(Nc2cccc(Cl)c2)c2ncn(C(C)C)c2n1", "note": "[PURVALANOLA]", "values": [{"measurement": "Activity", "setting": "[1]", "value": 95, "unit": "%"}, {"measurement": "Activity", "setting": "[2]", "value": 95, "unit": "%"}, {"measurement": "Activity", "setting": "[3]", "value": 98, "unit": "%"}, {"measurement": "Activity", "setting": "[4]", "value": 89, "unit": "%"}, {"measurement": "Activity", "setting": "[5]", "value": 106, "unit": "%"}, {"measurement": "Activity", "setting": "[6]", "value": 85, "unit": "%"}, {"measurement": "Activity", "setting": "[7]", "value": 91, "unit": "%"}]}
{"smiles": "CN(C)C[C@@H]1CCn2cc(c3ccccc32)C2=C(C(=O)NC2=O)c2cn(c3ccccc23)CCO1", "values": [{"measurement": "Activity", "setting": "[1]", "value": 90, "unit": "%"}, {"measurement": "Activity", "setting": "[2]", "value": 90, "unit": "%"}, {"measurement": "Activity", "setting": "[4]; filed as antagonist", "value": 44, "unit": "%"}, {"measurement": "Activity", "setting": "[5]", "value": 114, "unit": "%"}, {"measurement": "Activity", "setting": "[7]", "value": 85, "unit": "%"}]}
{"smiles": "Cc1n[nH]c2ccc(-c3cncc(OC[C@@H](N)Cc4c[nH]c5ccccc45)c3)cc12", "values": [{"measurement": "Activity", "setting": "[1]; filed as antagonist", "value": 3, "unit": "%"}, {"measurement": "Activity", "setting": "[2]", "value": 94, "unit": "%"}, {"measurement": "Activity", "setting": "[3]", "value": 68, "unit": "%"}, {"measurement": "Activity", "setting": "[4]; filed as antagonist", "value": 9, "unit": "%"}, {"measurement": "Activity", "setting": "[5]", "value": 73, "unit": "%"}, {"measurement": "Activity", "setting": "[6]; filed as antagonist", "value": 23, "unit": "%"}, {"measurement": "Activity", "setting": "[7]; filed as antagonist", "value": 26, "unit": "%"}]}
{"smiles": "Cn1c2ccccc2c2c3c(c4c5ccccc5n(CCC#N)c4c21)CNC3=O", "values": [{"measurement": "Activity", "setting": "[1]", "value": 96, "unit": "%"}, {"measurement": "Activity", "setting": "[2]", "value": 100, "unit": "%"}, {"measurement": "Activity", "setting": "[3]", "value": 82, "unit": "%"}, {"measurement": "Activity", "setting": "[4]; filed as antagonist", "value": 6, "unit": "%"}, {"measurement": "Activity", "setting": "[5]", "value": 118, "unit": "%"}, {"measurement": "Activity", "setting": "[6]; filed as antagonist", "value": 5, "unit": "%"}, {"measurement": "Activity", "setting": "[7]; filed as antagonist", "value": 49, "unit": "%"}]}
